# Measurements reported in PMC11390726, “Automated design of multi-target ligands by generative deep learning” (Nature Communications, 2024).
# Molecular target: T1, FXR (Homo sapiens, UniProt Q96RI1)
# T1 construct: expressed in transfected cells; host or cells: HEK293T
# T1 sequence (Q96RI1 262-486 limits assumed): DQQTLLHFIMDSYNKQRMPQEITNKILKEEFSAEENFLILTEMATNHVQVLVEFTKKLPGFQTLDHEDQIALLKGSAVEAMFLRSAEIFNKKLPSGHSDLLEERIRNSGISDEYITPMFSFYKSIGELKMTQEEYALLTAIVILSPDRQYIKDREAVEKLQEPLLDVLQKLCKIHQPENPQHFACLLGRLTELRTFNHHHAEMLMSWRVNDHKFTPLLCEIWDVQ
# Test: Gal4-hybrid reporter gene assay FXR
# Format: cell-based
# Details: at 50 µM, mean, n ≥ 3
# Experimental: The dual ligand candidates were characterized in functional assays for the targets of interest using cellular Gal4-hybrid reporter gene assays[43] to determine FXR, THRβ and PPARδ modulation and an enzyme activity assay[44] with the fluorogenic substrate PHOME to test sEH inhibition (Table 1).
# After 24 h, the medium was changed to Opti-MEM without supplements. Transient transfection was performed using Lipofectamine LTX reagent (Invitrogen, Carlsbad, CA, USA) according to the manufacturer’s protocol with pFR-Luc (100 ng/well) as reporter plasmid, pRL-SV40 (2 ng/well) for normalization of transfection efficiency and cell growth, and one pFA-CMV-hNR-LBD clone coding for the hinge region and ligand binding domain (LBD) of the NR of interest. Five hours after transfection, the cells were incubated with Opti-MEM supplemented with penicillin (100 U/mL) and streptomycin (100 µg/mL), additionally containing 0.1% DMSO and the respective test compound or 0.1% DMSO alone as untreated control. After overnight (14–16 h) incubation, luminescence was measured using the Dual-Glo® Luciferase Assay System (Promega, Madison, WI, USA) according to the manufacturer’s protocol with a Tecan Spark® 10 M multimode microplate reader. Relative light units (RLU) for normalization of transfection efficiency and cell growth were calculated by dividing firefly luminescence by renilla luminescence and multiplication by 1000. Fold activation was obtained by dividing the mean RLU of a test compound at a respective concentration by the mean RLU of the untreated control. All samples were tested in duplicates in at least three biologically independent experiments. For dose response curve fitting and calculation of the EC50/IC50 values, the equation “[Agonist]/[Inhibitor] vs. response – Variable slope (four parameters)” was used in GraphPad Prism 7.
row,SMILES,FXR: fold act. at 50 µM
1,O=C(O)c1ccc(-c2ccc(C(=O)NCc3c(Cl)cccc3Cl)cc2)cc1 [Compound 3],3.4 fold

# Same assay, conditions: mean, n ≥ 3
row,SMILES,EC50
1,CC(C)(C)c1ccc(CNC(=O)c2ccc(C(=O)O)cc2)cc1 [Compound 1],0.37 µM
2,CC(C)c1onc(-c2c(Cl)cccc2Cl)c1COc1ccc(Cc2ccc(OCC(=O)O)cc2)cc1 [Compound 6],1 µM
3,O=C(O)c1ccc(CNC(=O)c2ccc(-c3ccccc3)cc2)cc1 [Compound 2],0.44 µM
4,CC(C)c1onc(-c2c(Cl)cccc2Cl)c1COc1ccc(CC(=O)O)cc1 [Compound 5],11 µM

# Molecular target: T2, THRβ (Homo sapiens, UniProt P10828)
# T2 construct: expressed in transfected cells; host or cells: HEK293T
# T2 sequence (P10828 217-461 limits assumed): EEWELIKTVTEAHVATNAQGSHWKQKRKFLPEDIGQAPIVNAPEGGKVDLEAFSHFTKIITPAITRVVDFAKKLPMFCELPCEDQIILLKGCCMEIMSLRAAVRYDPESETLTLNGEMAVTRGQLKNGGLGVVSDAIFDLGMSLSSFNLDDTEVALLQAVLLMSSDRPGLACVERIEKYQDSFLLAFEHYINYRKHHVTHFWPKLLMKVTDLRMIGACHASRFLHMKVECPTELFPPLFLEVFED
# Test: Gal4-hybrid reporter gene assay THRβ
# Format: cell-based
# Details: Gal4-hybrid reporter gene assay; at 15 µM; mean, n ≥ 3
# Text: (§1) Compound 7 was originally designed with tert-butyloxy motif which was replaced by tert-butyl for improved chemical stability. The dual ligand candidates were characterized in functional assays for the targets of interest using cellular Gal4-hybrid reporter gene assays[43] to determine FXR, THRβ and PPARδ modulation and an enzyme activity assay[44] with the fluorogenic substrate PHOME to test sEH inhibition (Table 1). In vitro characterization of the CLM designed dual FXR/sEH modulators 1–3 confirmed engagement of both targets by all three compounds with sub-micromolar to low micromolar potencies. […] All designed PPARδ/sEH modulators (7–9) were confirmed as dual ligands of the intended targets. 7 emerged as remarkably potent sEH inhibitor endowed with micromolar PPARδ agonist activity.
# HEK293T cells (ATCC, CRL-1573) were cultured in Dulbecco’s modified eagle medium (DMEM), high glucose, supplemented with 10% FCS, sodium pyruvate (1 mM), penicillin (100 U/mL), and streptomycin (100 µg/mL) to 70–80% confluence at 37 °C and 5% CO2 and seeded in clear 96-well plates with a density of 40,000 cells/well. After 24 h, the medium was changed to Opti-MEM without supplements. Transient transfection was performed using Lipofectamine LTX reagent (Invitrogen, Carlsbad, CA, USA) according to the manufacturer’s protocol with pFR-Luc (100 ng/well) as reporter plasmid, pRL-SV40 (2 ng/well) for normalization of transfection efficiency and cell growth, and one pFA-CMV-hNR-LBD clone coding for the hinge region and ligand binding domain (LBD) of the NR of interest. Five hours after transfection, the cells were incubated with Opti-MEM supplemented with penicillin (100 U/mL) and streptomycin (100 µg/mL), additionally containing 0.1% DMSO and the respective test compound or 0.1% DMSO alone as untreated control. After overnight (14–16 h) incubation, luminescence was measured using the Dual-Glo® Luciferase Assay System (Promega, Madison, WI, USA) according to the manufacturer’s protocol with a Tecan Spark® 10 M multimode microplate reader. Relative light units (RLU) for normalization of transfection efficiency and cell growth were calculated by dividing firefly luminescence by renilla luminescence and multiplication by 1000. Fold activation was obtained by dividing the mean RLU of a test compound at a respective concentration by the mean RLU of the untreated control. All samples were tested in duplicates in at least three biologically independent experiments. For dose response curve fitting and calculation of the EC50/IC50 values, the equation “[Agonist]/[Inhibitor] vs. response – Variable slope (four parameters)” was used in GraphPad Prism 7. The following pFA-CMV-hNR-LBD clones and reference ligands were used: THRβ (pFA-CMV-hTHRβ-LBD[71], 1 µM T3), PPARδ (pFA-CMV-hPPARδ-LBD[72], 1 µM L-165,041), FXR (pFA-CMV-hFXR-LBD[73], 1 µM GW4064).
row,SMILES,THRβ: fold act. at 15 µM
1,CC(C)c1onc(-c2c(Cl)cccc2Cl)c1COc1ccc(Cc2ccc(OCC(=O)O)cc2)cc1 [Compound 6],5 fold

# Same assay, conditions: Gal4-hybrid reporter gene assay; mean, n ≥ 3
row,SMILES,THRβ: activity
1,CC(C)c1onc(-c2c(Cl)cccc2Cl)c1COc1ccc(C(=O)O)cc1 [Compound 4],inactive
2,CC(C)c1onc(-c2c(Cl)cccc2Cl)c1COc1ccc(CC(=O)O)cc1 [Compound 5],inactive

# Same assay, conditions: at non-toxic concentrations
row,SMILES,THRβ agonism
1,CC(C)c1onc(-c2c(Cl)cccc2Cl)c1COc1ccc(Cc2ccc(OCC(=O)O)cc2)cc1 [Compound 6],weak
2,CC(C)c1onc(-c2c(Cl)cccc2Cl)c1COc1ccc(C(=O)O)cc1 [Compound 4],no detectable
3,CC(C)c1onc(-c2c(Cl)cccc2Cl)c1COc1ccc(CC(=O)O)cc1 [Compound 5],no detectable

# Molecular target: T3, sEH (Homo sapiens, UniProt P34913)
# T3 construct: His tag (inferred from HisTrap purification with imidazole elution); made in house; own inference
# T3 sequence (P34913 1-555): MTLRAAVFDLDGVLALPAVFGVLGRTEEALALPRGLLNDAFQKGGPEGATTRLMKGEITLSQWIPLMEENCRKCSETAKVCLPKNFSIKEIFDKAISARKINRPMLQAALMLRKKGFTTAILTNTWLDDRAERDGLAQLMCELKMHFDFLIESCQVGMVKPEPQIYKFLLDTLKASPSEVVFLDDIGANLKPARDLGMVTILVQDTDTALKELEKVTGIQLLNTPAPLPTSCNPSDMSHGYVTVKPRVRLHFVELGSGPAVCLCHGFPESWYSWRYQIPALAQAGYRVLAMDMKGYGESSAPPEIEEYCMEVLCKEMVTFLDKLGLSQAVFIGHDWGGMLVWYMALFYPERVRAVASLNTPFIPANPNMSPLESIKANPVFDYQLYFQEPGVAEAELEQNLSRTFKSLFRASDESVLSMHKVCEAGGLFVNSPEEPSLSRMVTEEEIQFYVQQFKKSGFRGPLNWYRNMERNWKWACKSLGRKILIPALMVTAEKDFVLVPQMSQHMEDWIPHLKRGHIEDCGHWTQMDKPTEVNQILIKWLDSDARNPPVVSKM
# Test: sEH enzyme activity assay with fluorogenic substrate PHOME
# Format: biochemical
# Details: mean, n ≥ 3
# Text: as §1
# Soluble epoxide hydrolase (sEH) was purified as described by Hahn et al.[68] and Lukin et al.[69], respectively. Protein expression was carried out in 500 ml ZYP5052 autoinduction medium containing Kanamycin (100 mg/L) with lactose uptake-dependent induction. The fermentation procedure started at 37 °C and 200 rpm until the OD600 reached approximately 1.0. Then the temperature was reduced to 16 °C. After 24–36 h the cells (OD600 ≈ 15.0) were harvested by centrifugation at 5000 × g (4 °C, 20 min). Pellets were resuspended in a resuspension buffer containing Tris (50 mM), NaCl (0.5 M) and MgCl2 (10 mM) at pH 8 and sonicated twice for 15 s on ice. The sonicated suspension was centrifuged (18,000 × g, 30 min, 4 °C) and the supernatant was ultracentrifuged (100,000 × g, 1 h 10 min, 4 °C). The ultracentrifugation supernatant was loaded on a 5 ml HisTrap® FF (GE Healthcare, München, Germany) column at a flow rate of 2 ml/min and washed with washing buffer containing Tris (50 mM), NaCl (0.5 M), MgCl2 (10 mM), imidazole (20 mM) and DTT (3 mM) at pH 8, and eluted at 120 mM imidazole. The fractions containing hsEH after SDS-PAGE fraction analysis were pooled. The identity of hsEH was confirmed by Western Blotting and hsEH hydrolase activity assay. The inhibitory potency of the compounds was determined using a fluorescence-based enzyme activity assay in which PHOME (3-phenyl-cyano(6-methoxy-2-naphthalenyl)methylester-2-oxiraneacetic acid) is metabolized by sEH hydrolase towards a fluorescent naphthalene aldehyde. Dilution series of the compounds were incubated for 30 min with recombinant sEH (final protein concentration 3 nM). Subsequently, the fluorogenic substrate PHOME at final concentration of 50 μM was added, and the fluorescence was measured every minute for 45 min using a Tecan plate reader (ex: 360 nm, em: 465 nm; bandwidth 35 nm). Inhibition in percent was plotted against the logarithmic test compound concentration and IC50-values were calculated using the “log(Inhibitor) vs. Response – Variable slope (four parameters)” equation in GraphPad Prism 7.
row,SMILES,IC50
1,O=C(O)c1ccc(-c2ccc(C(=O)NCc3c(Cl)cccc3Cl)cc2)cc1 [Compound 3],21 µM
2,CC(C)(C)c1ccc(CNC(=O)c2ccc(C(=O)O)cc2)cc1 [Compound 1],4.1 µM
3,O=C(O)c1ccc(CNC(=O)c2ccc(-c3ccccc3)cc2)cc1 [Compound 2],8.1 µM

# System: FXR
# Test: not given
# Design: method as in earlier work
# Details: fine-tuning set; BindingDB; read-out: potency on target (EC50 for FXR); cited from earlier work
row,SMILES,EC50
1,CC(C)n1nc(C(=O)O)cc1C1CC1c1ccc(OCc2c(-c3c(Cl)cccc3Cl)noc2C2CC2)cc1Cl (stereo not shown),0.004 µM
2,CC(C)c1cnn(-c2c(Cl)cccc2Cl)c1COc1ccc(C=Cc2cccc(C(=O)O)c2)c(Cl)c1,0.02 µM
3,Cc1cccc(C)c1OCc1noc(C(C)C)c1COc1ccc(C=Cc2cccc(C(=O)O)c2)c(Cl)c1,0.056 µM
4,CN(Cc1cccc(C(=O)O)c1)c1ccc(OCc2c(-c3c(Cl)cccc3Cl)noc2C2CC2)nc1C(F)(F)F,0.009 µM
5,O=C(O)c1ccc2nc(N3CCCC(OCc4c(-c5ccccc5OC(F)(F)F)noc4C4CC4)CC3)sc2c1 (stereo not shown),0.007 µM
6,COc1ccc(CNc2c(-c3cc(Cl)ccn3)nc3ccc(Cl)cn23)cc1,0.0003 µM
7,CC(C)c1onc(-c2c(Cl)cccc2Cl)c1COc1ccc2sc(-c3cccc(C(=O)O)c3)cc2c1,0.032 µM

# System: THRβ
# Test: not given
# Design: method as in earlier work
# Details: fine-tuning set; BindingDB; read-out: potency on target (EC50 for THRβ); cited from earlier work
row,SMILES,EC50
1,Cc1c(CC(=O)O)c2ccccc2n1Cc1ccc(O)c(C(C)C)c1,0.15 µM
2,CC(C)c1cc(Oc2c(Cl)cc(NC(=O)C(=O)O)cc2Cl)n[nH]c1=O,0.12 µM
3,CC(C)c1cc(Oc2c(Cl)cc(-n3nc(C#N)c(=O)[nH]c3=O)cc2Cl)nn(C)c1=O,0.04 µM

# System: sEH
# Test: not given
# Design: method as in earlier work
# Details: fine-tuning set; BindingDB; read-out: potency on target (IC50 for sEH); cited from earlier work
row,SMILES,IC50
1,O=C(NCc1ccc(Br)cc1OC(F)(F)F)c1ccc(OCCC(F)(F)F)nc1,0.012 µM
2,O=C(O)CCc1ccc(OC2CCN(C(=O)NC3C(c4ccccc4)C3c3ccccc3)CC2)cc1 (stereo not shown),0.002 µM
3,CC(C)(C)N1CCOC(COc2ccc(NC(=O)NC3CCCCC3)cc2)C1 (stereo not shown),0.077 µM
4,CC(C)c1noc(C2CCN(C(=O)NC3CC3c3ccccc3)CC2)n1 (stereo not shown),0.006 µM

# Molecular target: T4, FFAR1 (Homo sapiens, UniProt O14842)
# T4 construct: expressed in transfected cells
# T4 sequence (O14842 whole entry): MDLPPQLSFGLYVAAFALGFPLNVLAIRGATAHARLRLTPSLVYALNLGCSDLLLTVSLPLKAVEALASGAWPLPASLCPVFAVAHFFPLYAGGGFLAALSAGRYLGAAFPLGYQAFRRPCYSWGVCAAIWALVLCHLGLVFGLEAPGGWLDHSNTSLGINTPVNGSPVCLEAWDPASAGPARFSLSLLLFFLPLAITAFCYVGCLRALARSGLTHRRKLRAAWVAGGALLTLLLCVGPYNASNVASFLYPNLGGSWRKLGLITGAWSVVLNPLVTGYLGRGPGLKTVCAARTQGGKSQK
# Test: not given
# Design: method as in earlier work
# Details: fine-tuning set; BindingDB; read-out: potency on target (EC50 for FFAR1); cited from earlier work
row,SMILES,EC50
1,CC(C(=O)O)C(c1ccc2c(c1)OC(C1CCN(C(C)c3cc(F)ccc3OC(F)(F)F)CC1)CC2)C1CC1 (stereo not shown),0.002 µM
2,CC#CC(CC(=O)O)c1ccc(NC(=O)C(=O)Nc2cccc(C(C)(C)C)c2)cc1 (stereo not shown),0.004 µM
3,COc1ccc(F)c(C2CCC(COc3cccc(C(C4CC4)C(C)C(=O)O)c3)CC2)c1 (stereo not shown),0.002 µM
4,CC#CC(CC(=O)O)c1ccc(OCc2cccc(CN(Cc3ccsc3)C3CCOCC3)c2)cc1 (stereo not shown),0.008 µM
5,CCOC(CC(=O)O)c1ccc(OC2CCc3c(Cl)cccc32)cc1 (stereo not shown),0.005 µM
